The subject of experiment [1] is Glycine max. In words: Activity of soybean sterol C24-methyltransferase 1.
The test system of experiment [2] is Glycine max. In words: Ratio of Kcat to Kinact for soybean sterol C24-methyltransferase 1.
Experiment [3] can be described thus: Inhibition of soybean sterol C24-methyltransferase 1. Also noted: species or system Glycine max.
The nature of experiment [4]: Inhibition of sunflower sterol C24-methyltransferase 1. Also on record: species or system Helianthus annuus.

The term Km denotes the substrate concentration at which the rate is half of its maximum. The kcat is the number of substrate molecules converted per active site and unit of time at saturation. Regarding `CC(C)=CCC[C@@H](C)[C@H]1CC[C@@]2(C)[C@@H]3CC[C@H]4C(C)(C)[C@@H](O)CC[C@@]45C[C@@]35CC[C@]12C`, in experiment [1], the Km stood at 30 µM and the kcat was determined as 0.001 s⁻¹.
Usually Ki stands for a dissociation constant, usually derived from enzyme kinetics or from competition with a known ligand. Regarding `CC(C)=C(C)CC[C@@H](C)[C@H]1CC[C@@]2(C)[C@@H]3CC[C@H]4C(C)(C)[C@@H](O)CC[C@@]45C[C@@]35CC[C@]12C` [CYCLOBRANOL], in experiment [2], the Ratio is 0.04. The Km in experiment [1] amounted to 37 µM. In addition, in experiment [1], the kcat was found to be 0.0001 s⁻¹. In addition, the Ki in experiment [3] turned out to be 25 µM; in experiment [4] it was 100 µM.

Values taken from ChEMBL document CHEMBL1155117, “Cyclobranol: a substrate for C25-methyl sterol side chains and potent mechanism-based inactivator of plant sterol methyltransferase” (Bioorg Med Chem Lett, 2008).
